Test: xn = mol fraction of the nth substance listed
Conditions: 101 kPa, Liquid

CCCCC [pentane] + CCCCCCC
mass density [kg/m3]
Conditions | x1 = 0.1014 | x1 = 0.2019 | x1 = 0.3011 | x1 = 0.4001 | x1 = 0.4997 | x1 = 0.5999 | x1 = 0.698 | x1 = 0.7991 | x1 = 0.8992
273.14 K | – | 691.57 | – | – | – | – | – | – | –
273.15 K | 696.24 | – | 686.91 | 682.43 | 677.18 | 671.16 | 665.42 | 659.05 | 652.37
278.15 K | 692.07 | 687.35 | 682.65 | 678.13 | 672.82 | 666.73 | 660.92 | 654.47 | 647.72
283.15 K | 687.87 | 683.1 | 678.35 | 673.78 | 668.42 | 662.25 | 656.37 | 649.85 | 643.01
288.15 K | 683.65 | 678.83 | 674.03 | 669.41 | 663.99 | 657.74 | 651.79 | 645.18 | 638.26
293.15 K | 679.4 | 674.53 | 669.67 | 665.01 | 659.51 | 653.19 | 647.17 | 640.48 | 633.46
298.15 K | 675.12 | 670.21 | 665.29 | 660.56 | 655.01 | 648.6 | 642.5 | 635.73 | 628.61
303.15 K | 670.82 | 665.85 | 660.88 | 656.08 | 650.46 | 643.97 | 637.79 | 630.93 | 623.7
308.15 K | 666.49 | 661.46 | 656.43 | 651.57 | 645.86 | 639.3 | 633.03 | 626.07 | –
313.15 K | 662.08 | 657.04 | 651.94 | 647 | 641.22 | 634.58 | 628.22 | 621.16 | –
318.15 K | 657.69 | 652.58 | 647.42 | 642.39 | 636.53 | – | 623.36 | 616.18 | –
323.15 K | 653.26 | 648.09 | 642.84 | 637.74 | 631.79 | – | 618.43 | 611.14 | –
328.15 K | 648.78 | 643.55 | 638.23 | 633.03 | 626.99 | – | – | – | –
333.15 K | 644.24 | – | 633.57 | 628.26 | 622.13 | – | – | – | –
338.15 K | 639.67 | – | – | 623.48 | 617.2 | – | – | – | –
343.15 K | 635.01 | – | – | 618.87 | – | – | – | – | –

CCCCC [pentane] + CCCCCC
Conditions | mass density [kg/m3]
273.15 K, x1 = 0.0999 | 674.29
273.15 K, x1 = 0.1996 | 671.84
273.15 K, x1 = 0.2998 | 668.66
273.15 K, x1 = 0.3884 | 666.23
273.15 K, x1 = 0.5 | 662.72
273.15 K, x1 = 0.6 | 659.97
273.15 K, x1 = 0.7001 | 657
273.15 K, x1 = 0.8995 | 650.09
273.16 K, x1 = 0.8011 | 653.2
278.15 K, x1 = 0.0999 | 669.9
278.15 K, x1 = 0.1996 | 667.39
278.15 K, x1 = 0.2998 | 664.21
278.15 K, x1 = 0.3884 | 661.71
278.15 K, x1 = 0.5 | 658.2
278.15 K, x1 = 0.6 | 655.38
278.15 K, x1 = 0.7001 | 652.36
278.15 K, x1 = 0.8011 | 648.53
278.15 K, x1 = 0.8995 | 645.39
283.14 K, x1 = 0.3884 | 657.16
283.14 K, x1 = 0.6 | 650.74
283.14 K, x1 = 0.7001 | 647.7
283.14 K, x1 = 0.8011 | 643.81
283.14 K, x1 = 0.8995 | 640.63
283.15 K, x1 = 0.0999 | 665.46
283.15 K, x1 = 0.1996 | 662.9
283.15 K, x1 = 0.2998 | 659.71
283.15 K, x1 = 0.5 | 653.63
288.14 K, x1 = 0.1996 | 658.38
288.14 K, x1 = 0.3884 | 652.56
288.14 K, x1 = 0.6 | 646.06
288.14 K, x1 = 0.7001 | 642.98
288.14 K, x1 = 0.8995 | 635.83
288.15 K, x1 = 0.0999 | 661
288.15 K, x1 = 0.2998 | 655.18
288.15 K, x1 = 0.5 | 649.01
288.15 K, x1 = 0.8011 | 639.05
293.14 K, x1 = 0.6 | 641.34
293.14 K, x1 = 0.7001 | 638.21
293.15 K, x1 = 0.0999 | 656.49
293.15 K, x1 = 0.1996 | 653.82
293.15 K, x1 = 0.2998 | 650.6
293.15 K, x1 = 0.3884 | 647.93
293.15 K, x1 = 0.5 | 644.36
293.15 K, x1 = 0.8011 | 634.24
293.15 K, x1 = 0.8995 | 630.97
298.14 K, x1 = 0.1996 | 649.22
298.14 K, x1 = 0.3884 | 643.25
298.14 K, x1 = 0.6 | 636.57
298.14 K, x1 = 0.7001 | 633.51
298.14 K, x1 = 0.8995 | 626.07
298.15 K, x1 = 0.0999 | 651.95
298.15 K, x1 = 0.2998 | 645.98
298.15 K, x1 = 0.5 | 639.66
298.15 K, x1 = 0.8011 | 629.38
303.14 K, x1 = 0.1996 | 644.58
303.14 K, x1 = 0.3884 | 638.53
303.14 K, x1 = 0.6 | 631.74
303.14 K, x1 = 0.7001 | 628.65
303.14 K, x1 = 0.8011 | 624.47
303.15 K, x1 = 0.0999 | 647.36
303.15 K, x1 = 0.2998 | 641.31
303.15 K, x1 = 0.5 | 634.91
303.15 K, x1 = 0.8995 | 621.11
308.14 K, x1 = 0.7001 | 623.75
308.15 K, x1 = 0.0999 | 642.74
308.15 K, x1 = 0.1996 | 639.9
308.15 K, x1 = 0.2998 | 636.59
308.15 K, x1 = 0.3884 | 633.76
308.15 K, x1 = 0.5 | 630.1
308.15 K, x1 = 0.6 | 626.86
308.15 K, x1 = 0.8011 | 619.5
308.15 K, x1 = 0.8995 | 616.08
313.14 K, x1 = 0.6 | 621.92
313.14 K, x1 = 0.8011 | 614.47
313.14 K, x1 = 0.8995 | 611
313.15 K, x1 = 0.0999 | 638.06
313.15 K, x1 = 0.1996 | 635.17
313.15 K, x1 = 0.2998 | 631.82
313.15 K, x1 = 0.3884 | 628.94
313.15 K, x1 = 0.5 | 625.24
313.15 K, x1 = 0.7001 | 618.75
318.14 K, x1 = 0.3884 | 624.06
318.14 K, x1 = 0.6 | 616.92
318.14 K, x1 = 0.7001 | 613.89
318.14 K, x1 = 0.8995 | 605.86
318.15 K, x1 = 0.0999 | 633.32
318.15 K, x1 = 0.1996 | 630.38
318.15 K, x1 = 0.5 | 620.41
318.15 K, x1 = 0.8011 | 609.38
323.14 K, x1 = 0.1996 | 625.55
323.14 K, x1 = 0.5 | 615.41
323.14 K, x1 = 0.8995 | 600.65
323.15 K, x1 = 0.0999 | 628.53
323.15 K, x1 = 0.6 | 611.84
328.14 K, x1 = 0.1996 | 620.65
328.15 K, x1 = 0.0999 | 623.68
328.15 K, x1 = 0.5 | 610.35
328.15 K, x1 = 0.6 | 606.69
333.15 K, x1 = 0.0999 | 618.77
333.15 K, x1 = 0.1996 | 615.6

CCCCCC [hexane] + CCCCCCC
mass density [kg/m3]
Conditions | x1 = 0.1019 | x1 = 0.2003 | x1 = 0.3005 | x1 = 0.4007 | x1 = 0.5001 | x1 = 0.5984 | x1 = 0.7002 | x1 = 0.7995 | x1 = 0.8974
273.15 K | 698.37 | 696.77 | 694.27 | 692.25 | 689.57 | 687.14 | 684.81 | 682.14 | 679.66
278.15 K | 694.22 | 692.61 | 690.08 | 688.04 | 685.35 | 682.88 | 680.52 | 677.82 | 675.32
283.15 K | 690.04 | 688.42 | 685.86 | 683.8 | 681.08 | 678.58 | 676.2 | 673.47 | 670.94
288.15 K | 685.84 | 684.21 | 681.62 | 679.53 | 676.79 | 674.26 | 671.85 | 669.1 | 666.54
293.15 K | 681.62 | 679.97 | 677.36 | 675.24 | 672.47 | 669.91 | 667.47 | 664.69 | 662.1
298.15 K | 677.38 | 675.7 | 673.06 | 670.93 | 668.12 | 665.53 | 663.06 | 660.24 | 657.62
303.15 K | 673.11 | 671.42 | 668.74 | 666.58 | 663.74 | 661.12 | 658.62 | 655.77 | 653.12
308.15 K | 668.81 | 667.09 | 664.39 | 662.2 | 659.32 | 656.67 | 654.14 | 651.25 | 648.57
313.15 K | 664.47 | 662.74 | 660 | 657.78 | 654.86 | 652.19 | 649.62 | 646.69 | 643.98
318.15 K | 660.11 | 658.36 | 655.58 | 653.33 | 650.35 | 647.66 | 645.06 | 642.1 | 639.34
323.15 K | 655.71 | 653.93 | 651.12 | 648.84 | 645.81 | 643.1 | 640.45 | 637.45 | 634.65
328.15 K | 651.27 | 649.47 | 646.62 | 644.31 | 641.22 | 638.48 | 635.8 | 632.76 | 629.92
333.15 K | 646.79 | 644.97 | 642.07 | 639.73 | 636.58 | 633.82 | 631.24 | 628.01 | 625.13
338.15 K | 642.28 | 640.43 | 637.49 | 635.11 | 631.89 | – | 626.48 | 623.2 | 620.28
343.15 K | 637.71 | 635.84 | 632.85 | 630.44 | 627.14 | – | 621.67 | – | –
348.15 K | 633.1 | 631.2 | 628.16 | 625.71 | 622.33 | – | 616.8 | – | –
353.15 K | 628.43 | 626.5 | 623.42 | 620.92 | – | – | – | – | –
358.15 K | 623.71 | 621.75 | 618.61 | 616.08 | – | – | – | – | –
363.15 K | 618.94 | 616.94 | 613.75 | 611.16 | – | – | – | – | –
